Here are results for nine molecules from ChEMBL document CHEMBL1909046, “DrugMatrix in vitro pharmacology data”.

Structures are written as SMILES.

Chain of Vasopressin V1a receptor (P37288 whole entry): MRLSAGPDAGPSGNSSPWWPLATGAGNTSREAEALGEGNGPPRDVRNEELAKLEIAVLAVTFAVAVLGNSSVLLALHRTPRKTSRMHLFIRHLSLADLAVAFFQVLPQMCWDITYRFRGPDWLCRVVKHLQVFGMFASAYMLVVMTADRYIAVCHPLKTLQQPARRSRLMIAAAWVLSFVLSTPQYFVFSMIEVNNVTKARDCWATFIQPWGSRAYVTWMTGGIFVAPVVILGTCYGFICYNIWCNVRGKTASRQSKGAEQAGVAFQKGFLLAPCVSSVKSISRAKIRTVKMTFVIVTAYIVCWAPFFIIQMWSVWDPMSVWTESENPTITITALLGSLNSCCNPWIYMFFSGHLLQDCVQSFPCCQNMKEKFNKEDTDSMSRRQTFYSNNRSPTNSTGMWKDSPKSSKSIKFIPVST

One test concerns the target T1, Alpha-2C adrenergic receptor (Homo sapiens, UniProt P18825).
T1 sequence (P18825 whole entry): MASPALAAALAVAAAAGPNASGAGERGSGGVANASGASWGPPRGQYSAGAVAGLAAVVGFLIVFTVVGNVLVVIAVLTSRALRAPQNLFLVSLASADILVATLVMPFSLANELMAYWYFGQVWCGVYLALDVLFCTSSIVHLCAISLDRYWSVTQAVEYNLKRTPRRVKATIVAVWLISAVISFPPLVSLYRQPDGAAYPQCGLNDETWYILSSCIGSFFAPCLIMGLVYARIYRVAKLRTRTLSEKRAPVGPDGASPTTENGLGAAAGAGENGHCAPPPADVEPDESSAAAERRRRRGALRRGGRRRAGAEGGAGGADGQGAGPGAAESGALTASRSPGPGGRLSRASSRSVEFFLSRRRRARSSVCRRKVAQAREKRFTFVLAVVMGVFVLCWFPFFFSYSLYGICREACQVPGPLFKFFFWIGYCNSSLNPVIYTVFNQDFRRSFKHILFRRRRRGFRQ
Kind of test: DRUGMATRIX: Adrenergic Alpha-2C radioligand binding (ligand: [3H] MK-912). The test is classed as cell membranes, Sf9, Membrane. The settings on record: sf9.
Regarding `O=C(c1ccccc1C(F)(F)F)N1CCC(Cc2ccccc2)CC1`, the IC50 result was “Not Active”.
Take `O=C/C=C/c1ccccc1`: the IC50 entry is given as “Not Active”.
Take `Nc1ccc2c3c(cccc13)C(=O)NC2=O`: the IC50 result is listed as “Not Active”.
Regarding `COc1ccc(C(=O)N2CCCC2=O)cc1`, the IC50 result is “Not Active”.
Same read-out and setting: the value for `O=c1cnn([C@@H]2O[C@H](CO)[C@@H](O)[C@H]2O)c(=O)[nH]1` [6-AZAURIDINE] was “Not Active”.
Consider `Cc1nnc2n1-c1ccc(Cl)cc1C(c1ccccc1)=NC2` [ALPRAZOLAM], for which the IC50 entry is “Not Active”.
Regarding `CC1(C)S[C@@H]2[C@H](NC(=O)[C@H](N)c3ccccc3)C(=O)N2[C@H]1C(=O)O` [AMPICILLIN], the IC50 entry is recorded as “Not Active”.
In the case of `C[C@@H](CO)NC(=O)[C@@H]1C=C2c3cccc4[nH]cc(c34)C[C@H]2N(C)C1` [ERGONOVINE], the IC50 result is reported as “Not Active”.
Turning to `C[n+]1ccc(-c2cc[n+](C)cc2)cc1.[Cl-].[Cl-]` [PARAQUAT DICHLORIDE], the IC50 result was “Not Active”.

Another test deals with Sodium-dependent noradrenaline transporter (Homo sapiens, UniProt P23975). Kind of test: DRUGMATRIX: Norepinephrine Transporter radioligand binding (ligand: [125I] RTI-55). In kind it is cell membranes, MDCK, Membrane. The settings on record: mdck; Not Active = under 50% inhibition at 10 µM.
Chain of Sodium-dependent noradrenaline transporter (P23975 whole entry): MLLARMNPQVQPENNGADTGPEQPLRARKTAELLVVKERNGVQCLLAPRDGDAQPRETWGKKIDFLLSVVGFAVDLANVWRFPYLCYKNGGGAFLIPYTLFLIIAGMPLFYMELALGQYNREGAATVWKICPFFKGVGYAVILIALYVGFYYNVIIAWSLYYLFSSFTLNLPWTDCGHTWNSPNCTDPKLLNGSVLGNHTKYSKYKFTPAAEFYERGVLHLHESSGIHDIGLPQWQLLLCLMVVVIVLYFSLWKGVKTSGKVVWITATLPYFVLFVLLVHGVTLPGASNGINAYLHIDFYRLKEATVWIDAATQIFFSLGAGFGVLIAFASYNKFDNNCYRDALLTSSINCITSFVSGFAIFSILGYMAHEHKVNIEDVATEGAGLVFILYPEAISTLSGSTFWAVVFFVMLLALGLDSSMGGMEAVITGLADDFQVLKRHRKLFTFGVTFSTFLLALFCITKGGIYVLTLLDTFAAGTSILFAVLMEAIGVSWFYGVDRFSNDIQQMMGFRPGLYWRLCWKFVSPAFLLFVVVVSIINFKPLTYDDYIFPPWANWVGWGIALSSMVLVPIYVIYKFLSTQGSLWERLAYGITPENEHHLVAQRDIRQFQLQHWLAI
As to `O=C(c1ccccc1C(F)(F)F)N1CCC(Cc2ccccc2)CC1`, the IC50 entry was “Not Active”.
Still for that read-out and setting: the value for `O=C/C=C/c1ccccc1` was “Not Active”.
On the same count and under the same terms, the entry for `Nc1ccc2c3c(cccc13)C(=O)NC2=O` is “Not Active”; for `COc1ccc(C(=O)N2CCCC2=O)cc1` it is “Not Active”.
With `O=c1cnn([C@@H]2O[C@H](CO)[C@@H](O)[C@H]2O)c(=O)[nH]1` [6-AZAURIDINE], the IC50 result is on record as “Not Active”.
Regarding `Cc1nnc2n1-c1ccc(Cl)cc1C(c1ccccc1)=NC2` [ALPRAZOLAM], the IC50 entry is recorded as “Not Active”.
For the molecule `C[C@@H](CO)NC(=O)[C@@H]1C=C2c3cccc4[nH]cc(c34)C[C@H]2N(C)C1` [ERGONOVINE], the IC50 entry is given as “Not Active”.
Regarding `C[n+]1ccc(-c2cc[n+](C)cc2)cc1.[Cl-].[Cl-]` [PARAQUAT DICHLORIDE], the IC50 result was “Not Active”.

A further test concerns the target Vasopressin V1a receptor (Homo sapiens, UniProt P37288). Further: in other assays of this panel Not Active means under 50% inhibition at 10 µM.
Assay: not given
In kind it is cell membranes, Membrane. The settings on record: hek293.
As for `O=C(c1ccccc1C(F)(F)F)N1CCC(Cc2ccccc2)CC1`, the IC50 result is listed as “Not Active”.
The same measure, in the same setting: the entry for `O=C/C=C/c1ccccc1` is “Not Active”; for `Nc1ccc2c3c(cccc13)C(=O)NC2=O` it is “Not Active”; for `COc1ccc(C(=O)N2CCCC2=O)cc1` it is “Not Active”.
As to `O=c1cnn([C@@H]2O[C@H](CO)[C@@H](O)[C@H]2O)c(=O)[nH]1` [6-AZAURIDINE], the IC50 result is recorded as “Not Active”.
Still for that read-out and setting: the entry for `Cc1nnc2n1-c1ccc(Cl)cc1C(c1ccccc1)=NC2` [ALPRAZOLAM] is “Not Active”.
Take `CC1(C)S[C@@H]2[C@H](NC(=O)[C@H](N)c3ccccc3)C(=O)N2[C@H]1C(=O)O` [AMPICILLIN]: the IC50 result is “Not Active”.
In the case of `C[C@@H](CO)NC(=O)[C@@H]1C=C2c3cccc4[nH]cc(c34)C[C@H]2N(C)C1` [ERGONOVINE], the IC50 result is “Not Active”.
For `C[n+]1ccc(-c2cc[n+](C)cc2)cc1.[Cl-].[Cl-]` [PARAQUAT DICHLORIDE], the IC50 entry is “Not Active”.

The target in a further test is T2, Polyunsaturated fatty acid lipoxygenase ALOX15 (Oryctolagus cuniculus, UniProt P12530).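 Further: inhibition of 15-lipoxygenase enzyme activity measured with linoleic acid as the substrate; in other assays of this panel Not Active means under 50% inhibition at 10 µM.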
T2 sequence (P12530 whole entry): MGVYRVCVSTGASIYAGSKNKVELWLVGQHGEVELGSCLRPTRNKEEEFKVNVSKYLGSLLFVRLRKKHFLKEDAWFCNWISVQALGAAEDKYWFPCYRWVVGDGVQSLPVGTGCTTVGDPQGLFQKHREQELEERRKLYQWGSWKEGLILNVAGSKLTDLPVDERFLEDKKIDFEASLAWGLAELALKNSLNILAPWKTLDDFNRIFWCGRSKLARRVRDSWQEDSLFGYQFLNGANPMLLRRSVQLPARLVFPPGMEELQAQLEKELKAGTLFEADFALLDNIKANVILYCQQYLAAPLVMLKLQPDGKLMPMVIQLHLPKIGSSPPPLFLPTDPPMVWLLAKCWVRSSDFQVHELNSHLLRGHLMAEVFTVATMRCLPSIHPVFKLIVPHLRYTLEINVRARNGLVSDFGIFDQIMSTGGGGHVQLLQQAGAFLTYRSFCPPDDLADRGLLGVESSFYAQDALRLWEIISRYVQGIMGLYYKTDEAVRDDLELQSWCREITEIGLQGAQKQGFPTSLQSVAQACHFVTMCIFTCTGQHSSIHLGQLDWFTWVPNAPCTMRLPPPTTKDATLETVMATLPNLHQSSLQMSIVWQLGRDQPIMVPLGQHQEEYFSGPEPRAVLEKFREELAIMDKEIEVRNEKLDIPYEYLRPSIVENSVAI
The test is described as follows: biochemical. The test is classed as tissue-based, Reticulocytes. The settings on record: reticulocytes.
Take `O=C(c1ccccc1C(F)(F)F)N1CCC(Cc2ccccc2)CC1`: the IC50 entry is “Not Active”.
Consider `O=C/C=C/c1ccccc1`, for which the IC50 result is “Not Active”.
As to `Nc1ccc2c3c(cccc13)C(=O)NC2=O`, the IC50 entry is “Not Active”.
As for `COc1ccc(C(=O)N2CCCC2=O)cc1`, the IC50 entry is reported as “Not Active”.
Still for that read-out and setting: the entry for `O=c1cnn([C@@H]2O[C@H](CO)[C@@H](O)[C@H]2O)c(=O)[nH]1` [6-AZAURIDINE] is “Not Active”.
With `Cc1nnc2n1-c1ccc(Cl)cc1C(c1ccccc1)=NC2` [ALPRAZOLAM], the IC50 result is recorded as “Not Active”.
Consider `CC1(C)S[C@@H]2[C@H](NC(=O)[C@H](N)c3ccccc3)C(=O)N2[C@H]1C(=O)O` [AMPICILLIN], for which the IC50 result was “Not Active”.
Regarding `C[C@@H](CO)NC(=O)[C@@H]1C=C2c3cccc4[nH]cc(c34)C[C@H]2N(C)C1` [ERGONOVINE], the IC50 result is “Not Active”.
As to `C[n+]1ccc(-c2cc[n+](C)cc2)cc1.[Cl-].[Cl-]` [PARAQUAT DICHLORIDE], the IC50 result was “Not Active”.

The target in the next test is Mu-type opioid receptor (Homo sapiens, UniProt P35372). Kind of test: DRUGMATRIX: Opiate mu (OP3, MOP) radioligand binding (ligand: [3H] Diprenorphine). In kind it is cell membranes, CHO-K1, Membrane. The settings on record: cho-k1; Not Active = under 50% inhibition at 10 µM.
Chain of Mu-type opioid receptor (P35372 whole entry): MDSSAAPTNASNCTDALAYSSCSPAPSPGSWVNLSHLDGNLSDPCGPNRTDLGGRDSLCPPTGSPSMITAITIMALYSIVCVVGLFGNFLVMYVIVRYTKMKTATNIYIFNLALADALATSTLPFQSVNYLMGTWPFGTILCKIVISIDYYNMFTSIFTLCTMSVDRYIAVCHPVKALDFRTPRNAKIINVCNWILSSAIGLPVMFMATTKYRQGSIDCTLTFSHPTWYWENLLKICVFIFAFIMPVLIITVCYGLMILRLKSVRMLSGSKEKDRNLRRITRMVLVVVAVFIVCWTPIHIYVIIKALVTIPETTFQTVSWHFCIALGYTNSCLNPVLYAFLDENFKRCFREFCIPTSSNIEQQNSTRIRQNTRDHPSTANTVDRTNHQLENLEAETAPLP
For `O=C(c1ccccc1C(F)(F)F)N1CCC(Cc2ccccc2)CC1`, the IC50 result is listed as “Not Active”.
In the case of `Nc1ccc2c3c(cccc13)C(=O)NC2=O`, the IC50 result is reported as “Not Active”.
Regarding `COc1ccc(C(=O)N2CCCC2=O)cc1`, the IC50 entry is given as “Not Active”.
On to `O=c1cnn([C@@H]2O[C@H](CO)[C@@H](O)[C@H]2O)c(=O)[nH]1` [6-AZAURIDINE], for which the IC50 result is reported as “Not Active”.
Take `CC1(C)S[C@@H]2[C@H](NC(=O)[C@H](N)c3ccccc3)C(=O)N2[C@H]1C(=O)O` [AMPICILLIN]: the IC50 result is reported as “Not Active”.

A further test has as its target cGMP-specific 3',5'-cyclic phosphodiesterase (Homo sapiens, UniProt O76074). Kind of test: DRUGMATRIX: Phosphodiesterase PDE5 enzyme inhibition (substrate: [3H]cGMP + cGMP). The test is classed as tissue-based, Platelet. Particulars: platelet; Not Active = under 50% inhibition at 10 µM.
`O=C(c1ccccc1C(F)(F)F)N1CCC(Cc2ccccc2)CC1`: the IC50 result was “Not Active”.
In the case of `O=C/C=C/c1ccccc1`, the IC50 result was “Not Active”.
Turning to `Nc1ccc2c3c(cccc13)C(=O)NC2=O`, the IC50 entry is on record as “Not Active”.
Take `COc1ccc(C(=O)N2CCCC2=O)cc1`: the IC50 result was “Not Active”.
With `O=c1cnn([C@@H]2O[C@H](CO)[C@@H](O)[C@H]2O)c(=O)[nH]1` [6-AZAURIDINE], the IC50 result is “Not Active”.
Still for that read-out and setting: the entry for `Cc1nnc2n1-c1ccc(Cl)cc1C(c1ccccc1)=NC2` [ALPRAZOLAM] is “Not Active”; for `CC1(C)S[C@@H]2[C@H](NC(=O)[C@H](N)c3ccccc3)C(=O)N2[C@H]1C(=O)O` [AMPICILLIN] it is “Not Active”.
The same measure, in the same setting: the entry for `C[C@@H](CO)NC(=O)[C@@H]1C=C2c3cccc4[nH]cc(c34)C[C@H]2N(C)C1` [ERGONOVINE] is “Not Active”; for `C[n+]1ccc(-c2cc[n+](C)cc2)cc1.[Cl-].[Cl-]` [PARAQUAT DICHLORIDE] it is “Not Active”.

The next test addresses T3, Cathepsin G (Homo sapiens, UniProt P08311).
T3 sequence (P08311 whole entry): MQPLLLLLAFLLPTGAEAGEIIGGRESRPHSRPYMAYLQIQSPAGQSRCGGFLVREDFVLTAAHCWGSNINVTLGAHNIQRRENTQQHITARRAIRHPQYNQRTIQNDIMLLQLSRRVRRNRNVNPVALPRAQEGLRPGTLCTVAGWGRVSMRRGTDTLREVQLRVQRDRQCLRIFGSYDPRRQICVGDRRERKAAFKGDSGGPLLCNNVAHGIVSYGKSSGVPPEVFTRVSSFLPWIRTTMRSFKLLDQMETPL
Assay: not given
In kind it is tissue-based. The settings on record: neutrophil.
Take `O=C(c1ccccc1C(F)(F)F)N1CCC(Cc2ccccc2)CC1`: the IC50 entry is on record as “Not Active”.
The same measure, in the same setting: the value for `O=C/C=C/c1ccccc1` was “Not Active”; that for `Nc1ccc2c3c(cccc13)C(=O)NC2=O` was “Not Active”.
As to `COc1ccc(C(=O)N2CCCC2=O)cc1`, the IC50 entry is reported as “Not Active”.
Take `O=c1cnn([C@@H]2O[C@H](CO)[C@@H](O)[C@H]2O)c(=O)[nH]1` [6-AZAURIDINE]: the IC50 result is recorded as “Not Active”.
For the molecule `Cc1nnc2n1-c1ccc(Cl)cc1C(c1ccccc1)=NC2` [ALPRAZOLAM], the IC50 result is on record as “Not Active”.
For the molecule `CC1(C)S[C@@H]2[C@H](NC(=O)[C@H](N)c3ccccc3)C(=O)N2[C@H]1C(=O)O` [AMPICILLIN], the IC50 entry is on record as “Not Active”.
In the case of `C[C@@H](CO)NC(=O)[C@@H]1C=C2c3cccc4[nH]cc(c34)C[C@H]2N(C)C1` [ERGONOVINE], the IC50 entry is “Not Active”.
For `C[n+]1ccc(-c2cc[n+](C)cc2)cc1.[Cl-].[Cl-]` [PARAQUAT DICHLORIDE], the IC50 result is given as “Not Active”.
